Test results taken from patent US10227347B2, “Purinyl-N-hydroxyl pyrimidine formamide derivative, preparation methods and uses thereof” (Guizhou Bailing Group Pharmaceutical CO., LTD., priority 2015, dated 2019).
Where two headings read alike, the source gives them in different places.

Legend:
[1] = tested on: MV4-11 cells (acute myeloid leukemia); experiment: Cell proliferation inhibition, MV4-11 (cck-8); assay type: cell-based; conditions: Homo sapiens
Method: (§1) The tumor cell lines are purchased from American Type Culture Collection (ATCC) and cultivated to the status of logarithmic growth as per the cultural method recommended by ATCC. The cells in logarithmic phase are spread on a 96 well plate as per 2000-3000/well; as for anchorage-dependent cells, the compound should be added in the test wells at certain concentration for incubation for 96 h after cell adherence. Determining cell proliferation activities with method MTT for tumor cells representing solid tumor model and with method cck-8 for tumor cells representing hematologic tumor model, and analyzing the result data with the software GraphPad Prism.
(§2) Calculating the value of IC50 as per the formula: Y=background data+(top data−background data)/(1+10^((Log IC50−X)*rate of curve)). Where, Y refers to the inhibition ratio (%) and X refers to the compound concentration.

PI3Kβ = target: T1, PI3Kβ (Homo sapiens, UniProt P42338); experiment: PI3Kβ activity inhibition (ADP-Glo); assay type: biochemical; conditions: Table 1, graded
T1 construct: purchased Millipore 14-603-K
Method: (§3) Detecting the inhibition capability of the compound to PI3Kβ and PI3Kγ activities with ADP-Glo (purchased from Promege Company; Catalog No.: v9102/3). […] The reaction system also comprises substrates as PIP2 and ATP. The reaction buffer system comprises 50 mM HEPES, 3 mM MgCl2, 1 mM EGTA, 100 mM NaCl, 0.03% CHAPS and 2 mM DTT. The pH value of the reaction buffer is 7.5. […] Mixing the system evenly for incubation under ambient temperature for 1 h; getting a new 384 well plate and transferring 5 μL reaction liquid from the each well of original 384 well plate to the corresponding wells of the new 384 well plate; adding 5 μL ADP-Glo which has been preheated to ambient temperature into each new reaction well to terminate the reaction; oscillating it slowly in dark place for 40 min's incubation after it is mixed evenly; adding 10 μL testing liquid in each reaction well, oscillating it for 1 min to mix evenly and incubating it for 1 h, then measuring the fluorescence intensity with a microplate reader and analyzing the result data with the software GraphPad Prism.
(§4) Calculating the value of IC50 as per the formula: Y=background data+(top data−background data)/(1+10^((Log IC50−X)*rate of curve))
(§5) Where, Y refers to the inhibition ratio (%) and X refers to the compound concentration.

[2] = tested on: A2780s cells (ovarian cancer); experiment: Cell proliferation inhibition, A2780s (MTT); assay type: cell-based; conditions: Homo sapiens
Method: as §1, §2

[3] = tested on: hct116 cells (colon cancer); experiment: Cell proliferation inhibition, hct116 (MTT); assay type: cell-based; conditions: Homo sapiens, HCT-116
Method: as §1, §2

PI3Kδ = target: T2, PI3Kδ (Homo sapiens, UniProt O00329); experiment: PI3Kδ activity inhibition (Kinase-Glo); assay type: biochemical; conditions: Table 1, graded
T2 construct: purchased Millipore 14-604-K
Method: Detecting the inhibition capability of the compound to PI3Kα and PI3Kδ activities with Kinase-Glo (purchased from Promege Company; Catalog No.: V3771). […] The reaction system also comprises substrates as PIP2 (4, 5-diphosphoinositide, purchased from Life Technologies Company) and ATP (triphosadenine, purchased from Sigma Company). The reaction buffer system comprises 50 mM HEPES (4-hydroxyethylpiperazine ethane sulfonic acid), 3 mM MgCl2, 1 mM EGTA (ethylene glycol bis(2-amino ethylether)quadrol), 100 mM NaCl, 0.03% CHAPS (3-[3-(cholamidopropyl)dimethylamino]-1-propanesulfonic acid), 2 mM DTT (dithiothreitol). The pH value of the reaction buffer is 7.5. […] Mixing the system evenly for incubation under ambient temperature (for 1 h in PI3Kα test and for 2 h in PI3Kδ test). After incubation, adding 10 μL Kinase-Glo which has been preheated to ambient temperature into each reaction well to terminate the reaction; shaking it in dark place for 15 min after it is mixed evenly, then measuring the fluorescence intensity with a microplate reader and analyzing the result data with the software GraphPad Prism.
as §4, §5

HDAC1 = target: T3, HDAC1 (Homo sapiens, UniProt Q13547); experiment: In vitro HDAC1 enzymatic activity inhibition (Lys-Ac-AMC substrate); assay type: biochemical
T3 construct: purchased BPS Bioscience
In short: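 Fluorogenic Lys-Ac-AMC deacetylation with trypsin development in modified Tris buffer pH 7.0; compound preincubated with enzyme 15 min at ambient temperature before substrate addition. Final HDAC1 6 nM, trypsin 0.05 μM, Ac-peptide 8 μM. IC50 from four-parameter fit of % inhibition versus concentration.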

PI3Kα = target: T4, PI3Kα (Homo sapiens, UniProt P42336); experiment: PI3Kα activity inhibition (Kinase-Glo); assay type: biochemical
T4 construct: purchased Invitrogen PV4788
In short: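 Kinase-Glo luminescence read-out of remaining ATP after PI3K reaction with PIP2 and ATP substrates in 50 mM HEPES pH 7.5, 3 mM MgCl2, 1 mM EGTA, 100 mM NaCl, 0.03% CHAPS, 2 mM DTT. Incubated at ambient temperature, 1 h for PI3Kα, 2 h for PI3Kδ. IC50 from four-parameter fit of % inhibition versus concentration.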

PI3Kγ = target: T5, PI3Kγ (Homo sapiens, UniProt P48736); experiment: PI3Kγ activity inhibition (ADP-Glo); assay type: biochemical; conditions: Table 1, graded
T5 construct: purchased Invitrogen PR8641C
Method: as §3, §4, §5

mTOR = target: T6, mTOR (Homo sapiens, UniProt P42345); experiment: mTOR activity inhibition (ULight-4E-BP1 peptide); assay type: biochemical; conditions: Table 1, graded
T6 construct: purchased Millipore 14-770
Method: mTOR protein is purchased from Millipore Company (Catalog No.: 14-770). The reaction buffer system comprises 50 mM HEPES, 10 mM MgCl2, 1 mM EGTA, 3 mM […], 0.01% Tween-20 (purchased from Chengdu Kelong Chemical Regent Factory) and 2 mM DTT. The pH value of the reaction buffer is 7.5. Preparing 10 μL reaction system in corresponding wells of the 384 well plate, which contains the compositions as: the compound with designed concentration (or blank control), mTOR protein (with the concentration of 2.5 nM), ULight-4E-BP1 (containing the 37th and the 46th threonine residues, Thr37/46) peptide (purchased from PE Company, Catalog No.: TRF0128-M) and ATP substrates (ULight-4E-BP1 peptide, with the concentration of 50 nM and ATP, with the concentration of […]). Mixing it evenly for incubation under ambient temperature for 1 h; adding 10 μL testing liquid containing EDTA (ethylenediaminetetraacetic acid) and Eu-anti-phosphorylation-4E-BP1 (Thr37/46) antibody (purchased from PE Company, Catalog No.: TRF0216-M) into the reaction wells (after the testing liquid is added, the concentration of EDTA is 8 mM and the concentration of Eu-phosphorylation-4E-BP1 antibody is 2 nM); mixing it evenly and incubating it for 1 h under ambient temperature, then measuring the fluorescence intensity with a microplate reader and analyzing the result data with the software GraphPad Prism.
as §4, §5

[4] = tested on: human breast cancer MCF-7 subcutaneous tumor; experiment: Subcutaneous tumor model, human breast cancer MCF-7; conditions: 30 mg/kg, once per 7 days, intraperitoneal
[5] = tested on: human breast cancer MDA-MB-231 subcutaneous tumor; experiment: Subcutaneous tumor model, human breast cancer MDA-MB-231; conditions: 30 mg/kg, once per 7 days, intraperitoneal
Method: Cell MM1S is cultured in RPMI1640 medium (HyClone) which contains 10% fetal calf serum (Hohhot Caoyuan Lvye Bioengineering Material Co., Ltd.) and 100 U/mL penicillin and streptomycin (Beyotime).
3) Inoculation, grouping and treatment: collecting cells in logarithmic phase under aseptic conditions and counting; diluting the single cell suspension with the medium containing neither fetal calf serum nor antibiotics to 1×10^7-8 cell/mL for standby. Mixing the cell suspension; injecting 100 μL of cell suspension (5×10^6-2×10^7 cells) subcutaneously with a 1 mL injector on the right side of the back of animals. Weeding out the animals with oversized and undersized tumor when the tumor grows to an average volume of about 120 mm^3 and grouping the qualified animals for treatment and drug administration. Refer to Table 7 for each grouping model and drug administration frequency. Measuring the weight of each model per 2 days and measuring the length and width of the tumor with a vernier caliper; killing the tested animals through cervical dislocation and peeling off their tumors for weight measuring and photographing. Then calculating the tumor inhibition ratio (%) and evaluating the inhibition intensity to tumor with such tumor inhibition ratio.

[6] = 96 h incubation, read-out: Proliferation IC50, Acute myeloid leukemia MV4-11
[7] = 96 h incubation, read-out: Proliferation IC50, Ovarian cancer A2780s
[8] = 96 h incubation, read-out: Proliferation IC50, Colon cancer hct116
[9] = Table 1, graded, read-out: HDAC1 IC50
[10] = Table 1, graded, read-out: PI3Kα IC50
[11] = read-out: IC50 to proliferation of MV4-11 cells
[12] = read-out: IC50 to proliferation of A2780s cells
[13] = read-out: IC50 to proliferation of hct116 cells
[14] = read-out: inhibition value IC50 to the activity of PI3Kα
[15] = read-out: inhibition value IC50 to the activity of HDAC1

T1 sequence (P42338 whole entry, species assumed): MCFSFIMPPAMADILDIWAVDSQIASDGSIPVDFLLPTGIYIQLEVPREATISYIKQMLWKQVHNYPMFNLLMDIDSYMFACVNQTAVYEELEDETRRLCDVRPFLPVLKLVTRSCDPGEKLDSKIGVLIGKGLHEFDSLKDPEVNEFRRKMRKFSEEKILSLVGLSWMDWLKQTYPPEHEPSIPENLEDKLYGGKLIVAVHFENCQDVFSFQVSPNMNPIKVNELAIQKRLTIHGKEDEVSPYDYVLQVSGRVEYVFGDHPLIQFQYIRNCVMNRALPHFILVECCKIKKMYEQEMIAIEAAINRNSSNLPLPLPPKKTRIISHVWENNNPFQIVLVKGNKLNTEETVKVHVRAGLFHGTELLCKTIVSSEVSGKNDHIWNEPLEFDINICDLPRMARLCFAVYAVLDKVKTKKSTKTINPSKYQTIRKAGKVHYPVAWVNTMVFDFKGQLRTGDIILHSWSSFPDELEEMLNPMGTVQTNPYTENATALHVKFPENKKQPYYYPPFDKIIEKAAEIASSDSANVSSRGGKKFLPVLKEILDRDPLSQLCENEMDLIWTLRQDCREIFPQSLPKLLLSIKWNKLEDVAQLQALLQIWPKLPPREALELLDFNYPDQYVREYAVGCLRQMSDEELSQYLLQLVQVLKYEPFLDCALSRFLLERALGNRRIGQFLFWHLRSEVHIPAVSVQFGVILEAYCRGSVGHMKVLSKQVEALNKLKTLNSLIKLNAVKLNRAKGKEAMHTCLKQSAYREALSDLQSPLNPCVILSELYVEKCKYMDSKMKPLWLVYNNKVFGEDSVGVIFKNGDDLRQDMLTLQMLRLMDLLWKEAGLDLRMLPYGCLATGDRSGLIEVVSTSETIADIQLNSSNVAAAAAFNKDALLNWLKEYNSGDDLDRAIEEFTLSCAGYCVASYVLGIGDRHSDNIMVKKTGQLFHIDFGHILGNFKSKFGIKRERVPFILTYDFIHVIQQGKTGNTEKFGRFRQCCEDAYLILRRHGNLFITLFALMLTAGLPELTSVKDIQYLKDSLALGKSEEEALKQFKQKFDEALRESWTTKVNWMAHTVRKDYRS
T1 sequence (P27986 whole entry partner, species assumed): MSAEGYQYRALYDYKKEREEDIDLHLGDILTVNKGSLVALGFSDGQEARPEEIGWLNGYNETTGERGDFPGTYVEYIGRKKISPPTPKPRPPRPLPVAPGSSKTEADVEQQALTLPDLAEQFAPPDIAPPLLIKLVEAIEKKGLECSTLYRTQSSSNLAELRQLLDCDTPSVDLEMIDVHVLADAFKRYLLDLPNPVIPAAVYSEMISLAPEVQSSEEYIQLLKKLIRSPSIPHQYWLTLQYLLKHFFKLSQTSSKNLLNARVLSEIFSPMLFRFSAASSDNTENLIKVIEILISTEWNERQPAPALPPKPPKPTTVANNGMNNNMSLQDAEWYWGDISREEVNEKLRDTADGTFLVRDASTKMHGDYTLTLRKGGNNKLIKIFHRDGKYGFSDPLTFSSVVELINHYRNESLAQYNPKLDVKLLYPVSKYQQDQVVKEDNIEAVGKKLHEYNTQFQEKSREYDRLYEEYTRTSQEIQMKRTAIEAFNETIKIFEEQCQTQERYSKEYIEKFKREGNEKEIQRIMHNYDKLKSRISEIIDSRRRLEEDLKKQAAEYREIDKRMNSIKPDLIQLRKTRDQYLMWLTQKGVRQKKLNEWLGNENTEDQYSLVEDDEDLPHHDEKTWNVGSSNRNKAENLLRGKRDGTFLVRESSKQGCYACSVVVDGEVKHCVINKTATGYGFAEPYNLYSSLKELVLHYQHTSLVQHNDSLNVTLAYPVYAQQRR
T3 sequence (Q13547 whole entry, species assumed): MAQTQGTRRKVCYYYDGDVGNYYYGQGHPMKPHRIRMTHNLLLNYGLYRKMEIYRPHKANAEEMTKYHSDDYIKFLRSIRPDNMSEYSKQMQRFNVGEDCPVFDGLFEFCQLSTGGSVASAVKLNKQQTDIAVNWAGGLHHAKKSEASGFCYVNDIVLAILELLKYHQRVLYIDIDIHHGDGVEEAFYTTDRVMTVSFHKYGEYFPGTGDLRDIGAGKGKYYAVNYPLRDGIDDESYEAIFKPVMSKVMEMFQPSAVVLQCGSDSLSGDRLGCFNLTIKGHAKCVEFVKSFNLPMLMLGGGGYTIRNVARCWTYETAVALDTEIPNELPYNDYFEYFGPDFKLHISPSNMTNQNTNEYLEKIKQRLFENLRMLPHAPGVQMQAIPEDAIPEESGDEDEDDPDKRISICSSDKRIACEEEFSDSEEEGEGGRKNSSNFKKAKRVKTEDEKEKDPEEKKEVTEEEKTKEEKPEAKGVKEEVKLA
T4 sequence (P42336 whole entry, species assumed): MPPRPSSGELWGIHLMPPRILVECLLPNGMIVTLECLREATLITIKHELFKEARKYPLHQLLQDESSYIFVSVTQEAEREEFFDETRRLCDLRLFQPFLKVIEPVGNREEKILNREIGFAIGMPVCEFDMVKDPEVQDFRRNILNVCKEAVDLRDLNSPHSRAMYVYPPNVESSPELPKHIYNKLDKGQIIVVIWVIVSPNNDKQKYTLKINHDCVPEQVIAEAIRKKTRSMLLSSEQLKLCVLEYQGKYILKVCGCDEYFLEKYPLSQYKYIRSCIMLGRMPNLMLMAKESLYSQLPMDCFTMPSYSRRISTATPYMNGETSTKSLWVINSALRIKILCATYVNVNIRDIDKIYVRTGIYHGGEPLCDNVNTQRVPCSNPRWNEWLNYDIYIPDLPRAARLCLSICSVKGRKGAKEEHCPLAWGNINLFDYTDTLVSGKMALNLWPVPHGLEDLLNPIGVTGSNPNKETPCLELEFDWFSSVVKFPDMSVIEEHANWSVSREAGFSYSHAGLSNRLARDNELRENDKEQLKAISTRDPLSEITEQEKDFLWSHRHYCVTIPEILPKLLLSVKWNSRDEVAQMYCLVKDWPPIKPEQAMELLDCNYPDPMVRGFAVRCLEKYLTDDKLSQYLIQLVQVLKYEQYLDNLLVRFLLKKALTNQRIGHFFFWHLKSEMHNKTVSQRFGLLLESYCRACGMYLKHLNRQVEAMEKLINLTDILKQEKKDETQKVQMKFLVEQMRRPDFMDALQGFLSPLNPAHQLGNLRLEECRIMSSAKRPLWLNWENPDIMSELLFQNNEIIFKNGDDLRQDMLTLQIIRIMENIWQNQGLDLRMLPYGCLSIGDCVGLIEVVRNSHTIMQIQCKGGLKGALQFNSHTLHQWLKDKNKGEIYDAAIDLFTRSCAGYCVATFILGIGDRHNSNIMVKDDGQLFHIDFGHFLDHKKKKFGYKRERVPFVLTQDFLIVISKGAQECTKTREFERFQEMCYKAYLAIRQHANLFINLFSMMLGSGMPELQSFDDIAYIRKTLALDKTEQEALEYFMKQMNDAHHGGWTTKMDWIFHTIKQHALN
T4 sequence (P27986 whole entry partner, species assumed): as the sequence (P27986 whole entry partner, species assumed) above
T6 sequence (P42345 1362-2549 limits assumed): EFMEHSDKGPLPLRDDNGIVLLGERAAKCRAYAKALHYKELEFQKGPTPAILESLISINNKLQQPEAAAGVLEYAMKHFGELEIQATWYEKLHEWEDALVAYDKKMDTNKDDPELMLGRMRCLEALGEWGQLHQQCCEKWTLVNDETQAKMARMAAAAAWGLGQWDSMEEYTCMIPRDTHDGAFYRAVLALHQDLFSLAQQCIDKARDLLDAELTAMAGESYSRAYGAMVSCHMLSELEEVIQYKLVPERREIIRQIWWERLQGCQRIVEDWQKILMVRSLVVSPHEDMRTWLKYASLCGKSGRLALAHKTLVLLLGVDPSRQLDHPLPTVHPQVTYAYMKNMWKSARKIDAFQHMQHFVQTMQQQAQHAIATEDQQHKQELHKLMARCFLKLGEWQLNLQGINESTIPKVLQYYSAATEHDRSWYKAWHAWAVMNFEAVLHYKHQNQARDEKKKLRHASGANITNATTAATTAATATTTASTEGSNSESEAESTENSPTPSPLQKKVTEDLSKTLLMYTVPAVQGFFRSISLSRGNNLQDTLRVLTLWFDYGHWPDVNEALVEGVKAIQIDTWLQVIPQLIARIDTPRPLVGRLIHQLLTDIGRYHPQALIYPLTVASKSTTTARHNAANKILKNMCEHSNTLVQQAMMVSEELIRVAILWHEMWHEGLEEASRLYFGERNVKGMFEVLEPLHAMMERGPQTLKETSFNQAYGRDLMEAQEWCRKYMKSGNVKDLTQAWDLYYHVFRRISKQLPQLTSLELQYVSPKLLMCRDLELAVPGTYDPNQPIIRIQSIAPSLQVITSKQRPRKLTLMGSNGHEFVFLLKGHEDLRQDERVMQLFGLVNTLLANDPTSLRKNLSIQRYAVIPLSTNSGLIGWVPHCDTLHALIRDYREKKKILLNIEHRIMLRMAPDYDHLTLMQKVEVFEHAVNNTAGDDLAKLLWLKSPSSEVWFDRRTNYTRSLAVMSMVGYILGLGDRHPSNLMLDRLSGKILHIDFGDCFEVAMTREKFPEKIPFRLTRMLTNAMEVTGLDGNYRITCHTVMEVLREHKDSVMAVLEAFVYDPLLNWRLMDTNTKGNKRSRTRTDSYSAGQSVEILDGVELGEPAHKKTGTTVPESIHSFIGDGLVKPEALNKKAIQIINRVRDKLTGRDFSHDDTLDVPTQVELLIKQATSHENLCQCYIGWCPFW

| SMILES | IC50 [1, 6] [nM] | IC50 (PI3Kβ) [nM] | IC50 [2, 7] [nM] | IC50 [3, 8] [nM] | IC50 (PI3Kδ) [nM] | IC50 (HDAC1; [9]) [nM] | IC50 (PI3Kα; [10]) [nM] | IC50 (PI3Kγ) [nM] | IC50 (mTOR) [nM] | IC50 [1, 11] [nM] | IC50 [2, 12] [nM] | IC50 [3, 13] [nM] | IC50 (PI3Kα; [14]) [nM] | IC50 (HDAC1; [15]) [nM] | Death [4] | Inhibitory rate (%) [4] [%] | Death [5] | Inhibitory rate (%) [5] [%] |
| --- | --- | --- | --- | --- | --- | --- | --- | --- | --- | --- | --- | --- | --- | --- | --- | --- | --- | --- |
| CCN(Cc1nc2c(N3CCOCC3)nc(-c3ccc(OC)nc3)nc2n1C)c1ncc(C(=O)NO)cn1 [CLJ-5, N-hydroxy-2-(((2-(6-methoxyl-3-pyridyl)-9-methyl-6-morpholine-9H-purine-8-yl))methyl(ethyl)amino)pyrimidine-5-formamide] | 100 to 1000 | 100 to 1000 | 100 to 1000 | 100 to 1000 | 100 to 1000 | 100 to 1000 | < 100 | 100 to 1000 | 100 to 1000 |  |  |  | < 100 | < 100 |  |  |  |  |
| CC(=O)O[C@H]1C(=O)[C@@]2(C)[C@H]([C@H](OC(=O)c3ccccc3)[C@]3(O)C[C@H](OC(=O)[C@H](O)[C@@H](NC(=O)c4ccccc4)c4ccccc4)C(C)=C1C3(C)C)[C@]1(OC(C)=O)CO[C@@H]1C[C@@H]2O [Paclitaxel] |  |  |  |  |  |  |  |  |  |  |  |  |  |  | 0/6 | 77.73 | 0/6 | 59.19 |
| CCCN(Cc1nc2c(N3CCOCC3)nc(-c3ccc(OC)nc3)nc2n1C)c1ncc(C(=O)NO)cn1 [CLJ-6, N-hydroxy-2-(((2-(6-methoxyl-3-pyridyl)-9-methyl-6-morpholine-9H-purine-8-yl))methyl(propyl)amino)pyrimidine-5-formamide] | > 1000 | > 10000 | > 1000 | > 1000 | > 10000 | 100 to 1000 | > 10000 | > 10000 | > 10000 |  |  |  |  |  |  |  |  |  |

The next lines start with results.

| IC50 [1, 6] [nM] | IC50 (PI3Kβ) [nM] | IC50 [2, 7] [nM] | IC50 [3, 8] [nM] | IC50 (PI3Kδ) [nM] | IC50 (HDAC1; [9]) [nM] | IC50 (PI3Kα; [10]) [nM] | IC50 (PI3Kγ) [nM] | IC50 (mTOR) [nM] | IC50 [1, 11] [nM] | IC50 [2, 12] [nM] | IC50 [3, 13] [nM] | IC50 (PI3Kα; [14]) [nM] | IC50 (HDAC1; [15]) [nM] | SMILES | Death [4] | Inhibitory rate (%) [4] [%] | Death [5] | Inhibitory rate (%) [5] [%] |
| --- | --- | --- | --- | --- | --- | --- | --- | --- | --- | --- | --- | --- | --- | --- | --- | --- | --- | --- |
| 0.1 to 10 | > 10000 | 0.1 to 10 | 10 to 100 | > 10000 | < 100 | > 10000 | > 10000 | > 10000 |  |  |  |  |  | CN(Cc1nc2c(N3CCOCC3)nc(-c3cnc4ccccc4c3)nc2n1C)c1ncc(C(=O)NO)cn1 [CLJ-14, 2-(((2-(quinoline-3-yl)-9-methyl-6-morpholine-9H-purine-8-yl))methyl(methyl)amino)-N-hydroxyl pyrimidine-5-formamide] |  |  |  |  |
| 0.1 to 10 | 100 to 1000 | 0.1 to 10 | 0.1 to 10 | 100 to 1000 | < 100 | < 100 | 100 to 1000 | 100 to 1000 | 0.1 to 10 | 0.1 to 10 | 0.1 to 10 | < 100 |  | Cc1ncc(-c2nc(N3CCOCC3)c3nc(CN(C)c4ncc(C(=O)NO)cn4)n(C)c3n2)cn1 [CLJ-13] |  |  |  |  |
| 10 to 100 | > 10000 | 10 to 100 | 10 to 100 | > 10000 | < 1 | 1000 to 10000 | > 10000 | > 10000 |  |  |  |  | < 1 | CN(Cc1nc2c(N3CCOCC3)nc(-c3ccc4[nH]ncc4c3)nc2n1C)c1ncc(C(=O)NO)cn1 [CLJ-15, 2-(((2-(1H-indazole-5-yl)-9-methyl-6-morpholine-9H-purine-8-yl))methyl(methyl)amino)-N-hydroxyl pyrimidine-5-formamide] |  |  |  |  |
| 0.1 to 10 | 100 to 1000 | 0.1 to 10 | 0.1 to 10 | 100 to 1000 | < 100 | < 100 | 100 to 1000 | 100 to 1000 | 0.1 to 10 | 0.1 to 10 | 0.1 to 10 | < 100 |  | CNc1ncc(-c2nc(N3CCOCC3)c3nc(CN(C)c4ncc(C(=O)NO)cn4)n(C)c3n2)cn1 [CLJ-12, 2-(((2-(4-aminemethylpyrimidine)-9-methyl-6-morpholine-9H-purine-8-yl))methyl(methyl)amino)-N-hydroxyl pyrimidine-5-formamide] |  |  |  |  |
